Experimental data: PubChem BioAssay (NCI)
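Test compounds were applied to cells in 96-well plates for 48 hours at 5 doses. GI50 marks 50% less growth. TGI denotes the concentration required for complete inhibition of growth.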

Key:
Experiment in all cases: inhibition of tumour cell growth, NCI panel, 48 h
CCRF-CEM leukemia = test system: CCRF-CEM leukemia
MDA-MB-231 breast = test system: MDA-MB-231 breast
OVCAR-8 ovarian = test system: OVCAR-8 ovarian
M14 melanoma = test system: M14 melanoma
SK-MEL-5 melanoma = test system: SK-MEL-5 melanoma
786-0 renal = test system: 786-0 renal
UACC-62 melanoma = test system: UACC-62 melanoma
MOLT-4 leukemia = test system: MOLT-4 leukemia
HCT-15 colon = test system: HCT-15 colon
BT-549 breast = test system: BT-549 breast
MDA-MB-468 breast = test system: MDA-MB-468 breast
U251 CNS = test system: U251 CNS
OVCAR-3 ovarian = test system: OVCAR-3 ovarian
IGROV1 ovarian = test system: IGROV1 ovarian
OVCAR-5 ovarian = test system: OVCAR-5 ovarian
RPMI-8226 leukemia = test system: RPMI-8226 leukemia
SNB-19 CNS = test system: SNB-19 CNS
OVCAR-4 ovarian = test system: OVCAR-4 ovarian
NCI-H23 lung = test system: NCI-H23 lung
HOP-62 NSCLC = test system: HOP-62 NSCLC
HS 578T breast = test system: HS 578T breast
CAKI-1 renal = test system: CAKI-1 renal
KM12 colon = test system: KM12 colon
SK-OV-3 ovarian = test system: SK-OV-3 ovarian
DU-145 prostate = test system: DU-145 prostate
SR leukemia = test system: SR leukemia
T-47D breast = test system: T-47D breast
HCT-116 colon = test system: HCT-116 colon
SF-539 CNS = test system: SF-539 CNS
ACHN renal = test system: ACHN renal

Structure (SMILES): O=C(/C=C/Nc1ccc(Cl)cc1)c1ccc2c(c1)Nc1ccccc1S2
- TGI (CCRF-CEM leukemia): 69.2 µM
- GI50 (MDA-MB-231 breast): 13.3 µM
- TGI (MDA-MB-231 breast): 27.9 µM
- GI50 (OVCAR-8 ovarian): 4.38 µM
- TGI (OVCAR-8 ovarian): 17.8 µM
- GI50 (M14 melanoma): 14.6 µM
- TGI (M14 melanoma): 40.2 µM
- GI50 (SK-MEL-5 melanoma): 12.4 µM
- TGI (SK-MEL-5 melanoma): 28.4 µM
- GI50 (786-0 renal): 11 µM
- TGI (786-0 renal): 23.3 µM
- GI50 (UACC-62 melanoma): 10.2 µM
- TGI (UACC-62 melanoma): 25.7 µM
- GI50 (MOLT-4 leukemia): 17.6 µM
- TGI (MOLT-4 leukemia): > 100 µM
- GI50 (HCT-15 colon): 14.9 µM
- TGI (HCT-15 colon): > 100 µM
- GI50 (BT-549 breast): 9.67 µM
- TGI (BT-549 breast): 33.8 µM
- GI50 (MDA-MB-468 breast): 3.44 µM
- TGI (MDA-MB-468 breast): 14.1 µM
- GI50 (U251 CNS): 6.88 µM
- TGI (U251 CNS): 21.3 µM
- GI50 (OVCAR-3 ovarian): 11.4 µM
- TGI (OVCAR-3 ovarian): 30.5 µM
- GI50 (IGROV1 ovarian): 13.2 µM
- TGI (IGROV1 ovarian): 34.6 µM
- GI50 (OVCAR-5 ovarian): 15.9 µM
- TGI (OVCAR-5 ovarian): 68.2 µM
- GI50 (RPMI-8226 leukemia): 17.7 µM
- TGI (RPMI-8226 leukemia): > 100 µM
- GI50 (SNB-19 CNS): 12.2 µM
- TGI (SNB-19 CNS): 29.3 µM
- GI50 (OVCAR-4 ovarian): 2.84 µM
- TGI (OVCAR-4 ovarian): 10.4 µM
- GI50 (NCI-H23 lung): 5.34 µM
- TGI (NCI-H23 lung): 20.4 µM
- GI50 (HOP-62 NSCLC): 4.15 µM
- TGI (HOP-62 NSCLC): 17.1 µM
- GI50 (HS 578T breast): 3.42 µM
- TGI (HS 578T breast): 19 µM
- GI50 (CAKI-1 renal): 10.1 µM
- TGI (CAKI-1 renal): 24.6 µM
- GI50 (KM12 colon): 14.6 µM
- TGI (KM12 colon): 55.2 µM
- GI50 (SK-OV-3 ovarian): 12.9 µM
- TGI (SK-OV-3 ovarian): 29.5 µM
- GI50 (DU-145 prostate): 8.43 µM
- TGI (DU-145 prostate): 27.7 µM
- GI50 (SR leukemia): 21.2 µM
- TGI (SR leukemia): > 100 µM
- GI50 (T-47D breast): 12.9 µM
- TGI (T-47D breast): 56.4 µM
- GI50 (HCT-116 colon): 10.3 µM
- TGI (HCT-116 colon): 29.9 µM
- GI50 (SF-539 CNS): 8.84 µM
- TGI (SF-539 CNS): 21.5 µM
- GI50 (ACHN renal): 11 µM
- TGI (ACHN renal): 27.8 µM
